Columns and labels:
[1] = system: T. gondii RH-YFP tachyzoites; assay: Synergy studies with RH strain YFP tachyzoites; format: cell-based, Toxoplasma gondii
Experimental: Atovaquone and pyrimethamine were used to test whether they are synergistic with JAG21. Serial dilutions of the combination of JAG21 and either atovaquone or pyrimethamine were used in an in vitro challenge assay as described above. The EC50 of each compound and the combination of two compounds were determined. The effect of the combination of drugs was calculated with the following formula:C= [A]c/[A]a+[B]c/[B]a. If C is lower than 1, the two compounds tested have synergistic effect; if C is >1, the two compounds tested have antagonist effect and if C is 1 they are additive.

P. berghei sporozoites = assay: P. berghei causal prophylaxis in vivo model; set-up: species or system Plasmodium berghei; details: oral nanoformulation, single dose 2.5 mg/kg day 0 or 3 doses 0.625 mg/kg days −1, 0, +1; C57BL/6 albino mice
Text: P. berghei sporozoites were obtained from laboratory-reared female Anopheles stephensi mosquitoes which were maintained at 18 degrees C for 17–22 days after feeding on a luciferase expressing P. berghei infected Swiss CD1ICR. Using a dissecting microscope, the salivary glands were extracted from malaria-infected mosquitoes and sporozoites were obtained. Briefly, mosquitoes were separated into head/thorax and abdomen. Thoraxes and heads were triturated with a mortar and pestle and suspended in medium RPMI 1640 containing 1% C57BL/6 mouse serum (Rockland Co, Gilbertsville, PA, USA). […] They were stained with a vital dye containing fluorescein diacetate (50 mg/mL in acetone) and ethidium bromide (20 μg/mL in phosphate buffered saline; Sigma Chemical Co, St. Louis, MO, USA) and counted in a hemocytometer to ensure that inoculated sporozoites were viable following the isolation procedure. […]
Animals were dosed with experimental compounds based on body weight. […] To insure the size of the compounds in the dosing solution were under […], the suspension was homogenized using a homogenizer (PRO Scientific Inc, Monroe, CT, USA) with a 10 mm open-slotted generator running at 20,000–22,000 rpm for 5 min in an ice bath. […] Stability beyond that time was not determined. […]

bovine cytochrome bc1 = target: T1, bovine cytochrome bc1 (Bos taurus, UniProt P00157); assay: Bovine cytochrome bc1 activity assay; format: biochemical; details: read-out: Bovine Cytbc1 activity inhibition
T1 construct: Whole fresh bovine heart was collected after slaughter and transported in ice; from tissue; host or cells: bovine heart mitochondria; DDM-solubilised, DEAE-Sepharose and Sephacryl-S300 purified
Experimental: Bovine cytochrome bc1 inhibition assay was carried out in 50 mM KPi pH 7.5, 2 mM EDTA, 10 mM KCN, 30 μM equine heart cytochrome c (Sigma Aldrich), and 2.5 nM bovine cytochrome bc1 at room temperature. 20 mM inhibitors dissolved in DMSO were added to the assay at a desired concentration without prior incubation. […] The reaction was initiated by the addition of 50 μM decylubiquinol (Abcam). The reduced cytochrome c was monitored by the different absorption between 550 and 542 nm using extinction coefficient of 18.1 mM^−1 cm^−1 in a SPECTRAmax Plus 384 UV-visible Spectrometer. The initial kinetic rate is determined as a zero-order reaction and used as the specific activity of cytochrome bc1.

PPB (human) = format: in vitro ADME; details: plasma
[2] = system: T. gondii (Prugneaud strain expressing luciferase) tachyzoites; assay: Type II Prugneaud luciferase tachyzoite infection of Balb/C mice, IVIS and brain cysts; format: in vivo, Toxoplasma gondii
Experimental: Balb/C mice were infected intraperitoneally (IP) with 20 × 10^3 T. gondii (Prugneaud strain expressing luciferase) tachyzoites. Treatment began 2 h later with JAG21 (5 mg/kg) which was dissolved in DMSO, administered IP in a total volume of 0.05 mL. Mice were imaged every second day starting on day 4 post infection using an IVIS Spectrum (Caliper Life Sciences) for […], with medium binning, 20 min post injection with 150 mg/kg of D-luciferin potassium salt solution.
Brain cysts were searched for in paraffin imbedded tissue of the surviving Prugneaud strain infected treated Balb/C mice in the IVIS study, 30 days after infection which was 16 days after treatment had been discontinued. All treated mice had survived. There were no surviving untreated mice in those experiments.

Cc1[nH]c2c(c(=O)c1-c1ccc(Oc3ccc(OC(F)(F)F)cc3)cc1)CCCC2 [JAG21, 2-Methyl-3-(4-(4-(Trifluoromethoxy)Phenoxy)Phenyl)-5,6,7,8-Tetrahydroquinolin-4-One]
effect of combination with pyrimethamine ([1]; data not shown): no antagonism was observed | effect of combination with atovaquone ([1]; isobologram): synergy | survival 30 days post infection (P. berghei sporozoites): 100% | inhibition at 0.1 µM (bovine cytochrome bc1; 0.1 μM): 36% | inhibition at 1 µM (bovine cytochrome bc1; 1 μM): 63% | fraction unbound (PPB (human)): 0.001 | luciferase expressing parasites by IVIS ([2]; 5 mg/kg/day IP): eliminates leuciferase expressing parasites | survival of infected mice ([2]; 5 mg/kg/day IP for 14 days): 100% | cysts in brains ([2]; treated first 14 days with 5 mg/kg/day IP, 5 mg/kg/day): No cysts were found

— PMC7311950, “Potent Tetrahydroquinolone Eliminates Apicomplexan Parasites” (Frontiers in Cellular and Infection Microbiology, 2020)
